Experiment [1] is described as follows: Reaction constant k1 value for sulfite (100 mM) addition at pH 7.4 phosphate buffer at 30 degrees C.
A short description of experiment [2]: Reaction constant k-1 value for sulfite (100 mM) addition at pH 7.4 phosphate buffer at 30 degrees C.
The nature of experiment [3]: Dissociation constant value was determined.
Experiment [4] is described as follows: Reaction constant k1 value for the oxidation of the 1-benzyl-dihydronicotinamide in 100 mM, pH 7.4 phosphate buffer at 30 degrees C.
The nature of experiment [5]: Reaction constant k1 value for the oxidation of the 1-benzyl-dihydronicotinamide in 100 mM, pH 7.4 phosphate buffer at 15 degrees C.

Usually Kd stands for the concentration at which binding is half-saturated. As for `O=c1nc2n3c4c(cccc4nc-2c(=O)[nH]1)CCC3CO` (configuration not stated), the values for the K1 in experiment [1], in experiment [4] and in experiment [5] were 0.00822 M⁻¹ s⁻¹, 24.9 M⁻¹ s⁻¹ and 10.8 M⁻¹ s⁻¹, respectively. Further, the K-1 in experiment [2] turned out to be 0.183 min⁻¹. Moreover, the Kd in experiment [3] came out at 371 mM.

For the compound `O=c1nc2n3c4c(cccc4nc-2c(=O)[nH]1)CCC3`, the values for the K1 in experiment [1], in experiment [4] and in experiment [5] were 0.00738 M⁻¹ s⁻¹, 25.7 M⁻¹ s⁻¹ and 10.2 M⁻¹ s⁻¹, respectively. The K-1 in experiment [2] came to 0.651 min⁻¹. Further, in experiment [3], binding was characterised by a dissociation constant (Kd) of 1470 mM.

Turning to `Cn1c2nc(=O)[nH]c(=O)c-2nc2ccccc21`, the K1 was determined as 42.9 M⁻¹ s⁻¹ in experiment [4] and 15.5 M⁻¹ s⁻¹ in experiment [5].

Values taken from ChEMBL document CHEMBL1135366, “An N1-hydrogen bonding model for flavin coenzyme” (Bioorg Med Chem Lett, 2002).
